Measured values taken from US7923440B2, “Method of treating or preventing immune mediated disorders and pharmaceutical formulation for use therein” (Pantarhei Bioscience B.V., priority 2002, dated 2011).

Assays:
[1] = molecular target: T1, human sex Hormone Binding Globulin (SHBG) (Homo sapiens, UniProt P04278); test: Competitive steroid-binding assay for SHBG; conditions: comparison among tested steroids; order ethinylestradiol, 17β-estradiol, testosterone, 5α-dihydrotestosterone
T1 construct: made in house; host or cells: transgenic mouse (serum)
T1 sequence (P04278 30-402): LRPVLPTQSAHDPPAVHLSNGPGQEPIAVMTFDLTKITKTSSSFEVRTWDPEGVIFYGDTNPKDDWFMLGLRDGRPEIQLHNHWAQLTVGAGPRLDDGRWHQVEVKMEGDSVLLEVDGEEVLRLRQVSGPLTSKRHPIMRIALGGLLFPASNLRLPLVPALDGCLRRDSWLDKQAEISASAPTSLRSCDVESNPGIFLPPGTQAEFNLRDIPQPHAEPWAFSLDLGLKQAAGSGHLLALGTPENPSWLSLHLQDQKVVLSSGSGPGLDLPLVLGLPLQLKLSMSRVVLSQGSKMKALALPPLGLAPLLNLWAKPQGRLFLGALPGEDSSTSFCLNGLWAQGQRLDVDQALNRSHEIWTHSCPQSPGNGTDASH
Experimental: Human SHBG was treated for 30 min at room temperature with a dextran-coated charcoal (DCC) suspension in phosphate buffered saline (PBS) to remove any steroid ligand. After centrifugation (2,000×g for 10 min) to sediment the DCC, the supernatant containing the human SHBG was diluted in PBS to a concentration of 1 nM based on its steroid binding capacity.
The average amounts of [^3H]labeled ligands bound to SHBG at each concentration of competitor (B) were expressed as a percentage of the average amounts of [^3H]labeled ligands bound to SHBG in the absence of competitor (B0), and were plotted against the concentration of competitor in each assay tube.

[2] = tested on: castrated mice with experimental autoimmune encephalomyelitis (EAE); conditions: amount inducing serum levels of late stage pregnancy, Jansson et al. 1998; cited from earlier work
[3] = elimination from the blood; cited from earlier work
[4] = tested on: AP-1 site in the presence of ERα; conditions: Paech et al. 1997; cited from earlier work
[5] = tested on: AP-1 site in the presence of ERβ; conditions: in the presence of / through ERβ, Paech et al. 1997; cited from earlier work
[6] = tested on: male DBA/1 mice with collagen induced arthritis (CIA); test: Collagen induced arthritis (CIA) in male DBA/1 mice, oral treatment; assay type: in vivo, mouse; conditions: 1 mg/kg
Experimental: The ability of estetrol to alleviate the severity of immune mediated disorders and its possible side-effects were evaluated and compared with dexamethasone in mice developing collagen induced arthritis (CIA), which is another experimental system of autoimmune and chronic inflammatory disease, representing human arthritic diseases, particularly rheumatoid arthritis (RA).
Arthritis was induced in male DBA/1 mice using a two-step immunization protocol (Joosten et al., “Dual role of IL-12 in early and late stages of murine collagen type II arthritis”. J Immunol 1997; 159:4094-4102; Joosten et al., “IL-1β blockade prevents cartilage and bone destruction in murine type II collagen-induced arthritis, whereas TNFα blockade only ameliorates joint inflammation”. J Immunol 1999; 163:5049-55). This strain is highly susceptible to CIA induced with bovine type II collagen. On day 0, mice were immunized with bovine type II collagen (100 μg) emulsified in Freund's complete adjuvant (four subcutaneous injections in the back). On day 21, mice were boosted with an i.p. injection of 100 μg collagen type II diluted in PBS.
The effect of oral treatment with estetrol on collagen-induced arthritis was studied in a 6-week study design. From day 22 until the end of the study (day 42), the animals were treated once daily with vehicle (hydroxypropyl-beta-cyclodextrin in a 20% wt/vol solution in water) serving as negative control or four different dosages of estetrol (3 mg/kg, 1 mg/kg, 0.3 mg/kg and 0.1 mg/kg). Dexamethasone (1 mg/kg), was chosen as a positive control because it is a well studied corticosteroid that reduces swelling and inflammation and is used in a variety of disorders such as skin diseases (psoriasis, hives), allergic conditions, breathing problems, cancer, blood disorders (anemia), digestive problems, eye disorders and for the treatment of arthritis. Although effective as an anti-inflammatory agent, dexamethasone is also known to induce a number of side effects, which amongst others include in humans the induction of osteoporosis, reduced adrenal function, dizziness, nausea, indigestion, increased appetite, weight gain due to enhanced water retention, weakness and/or sleep disturbances. In addition, systemic dexamethasone treatment in rodents results in strong catabolic effects that can be easily observed as weight loss (Orzechowski et al. 2002, “Rats with a glucocorticoid-induced catabolic state show symptoms of oxidative stress and spleen atrophy: the effects of age and recovery”. J Vet Med A Physiol Pathol Clin Med; 49:256-63).
All groups used in the study consisted of 13 mice. During the study animals were weighed and monitored for clinical signs of arthritis. Scoring of disease severity (clinical arthritis score) was performed according to scoring system described by Joosten et al. 1997 (J. Immunol., 159:4094-4102) and Joosten et al. 1999 (J. Immunol., 163:5049-55).
Basic statistical analyses were performed as follows: The significance of differences between all treatment groups in the main clinical outcome parameters was tested using analysis of variance (ANOVA). Each significant ANOVA was followed by post hoc Tukey tests to determine the significance of the difference between each treatment group and the control group. Furthermore, linear regression analysis was used to study the dose-dependency of the effects of treatment with estetrol. All statistical analysis were performed using statistical software program SPSS 10.0 for Windows (SPSS Inc., Chicago, Ill., USA).

## C[C@]12CCC(=O)C[C@@H]1CC[C@@H]1[C@@H]2CC[C@]2(C)[C@@H](O)CC[C@@H]12 [5α-dihydrotestosterone, reference compound]
[1]
  relative binding affinity for human SHBG: in this order, show an increased relative binding affinity for human SHBG

## C[C@]12CC[C@@H]3c4ccc(O)cc4CC[C@H]3[C@@H]1CC[C@@H]2O [E2, 17β-estradiol]
[2]
  onset of experimental autoimmune encephalomyelitis (EAE): delays the onset
[3]
  half-life: around 1 hour
[4]
  effect on AP-1 site: activates
[5]
  effect on AP-1 site: inhibits

## C[C@]12CC[C@@H]3c4ccc(O)cc4C[C@@H](CCCCCCCCC[S+]([O-])CCCC(F)(F)C(F)(F)F)[C@H]3[C@@H]1CC[C@@H]2O (stereo partly shown) [ICI-182,780]
[4]
  effect on AP-1 site: inhibit
[5]
  effect on AP-1 site: stimulate

## C[C@@H]1C[C@H]2[C@@H]3CCC4=CC(=O)C=C[C@]4(C)[C@@]3(F)[C@@H](O)C[C@]2(C)[C@@]1(O)C(=O)CO [dexamethasone, reference compound]
[6]; day 21 to 42, vehicle 31.4±1.73
  average cumulative arthritis score: 0
[6]; day 28
  body weight, % of initial weight (day 21): 91.5%
[6]; day 35
  body weight, % of initial weight (day 21): 91.4%
[6]; day 42
  body weight, % of initial weight (day 21): 94.0%
[6]; until day 42, vehicle 5.90±0.38 on day 42
  macroscopic arthritis score: 0
[6]; up to day 42
  disease incidence (arthritis): 0%

## C[C@]12CC[C@@H]3c4ccc(O)cc4CC[C@H]3[C@@H]1C[C@@H](O)[C@@H]2O [estriol]
[2]
  onset of experimental autoimmune encephalomyelitis (EAE): delays the onset

## O=C(c1ccc(OCCN2CCCCC2)cc1)c1c(-c2ccc(O)cc2)sc2cc(O)ccc12 [raloxifene]
[4]
  effect on AP-1 site: inhibit
[5]
  effect on AP-1 site: stimulate

## CC/C(=C(\c1ccccc1)c1ccc(OCCN(C)C)cc1)c1ccccc1 [tamoxifen]
[4]
  effect on AP-1 site: inhibit
[5]
  effect on AP-1 site: stimulate

## C[C@]12CC[C@H]3[C@@H](CCC4=CC(=O)CC[C@@]43C)[C@@H]1CC[C@@H]2O [testosterone, reference compound]
[1]
  relative binding affinity for human SHBG: in this order, show an increased relative binding affinity for human SHBG
